In patent US12163953B2, “P-phenylene ethynylene compounds as bioactive and detection agents” (STC.UNM, priority 2014, dated 2024):
Read-outs that look alike come from different tables or passages of the source.

How the values were obtained:
[1] = Photophysical properties of PEs alone (excitation/emission spectra, fluorescence yield); assay type: physicochemical; conditions: for λem (PB): phosphate buffer; for λex (PB), high-energy band / λex (PB), low-energy band: phosphate buffer pH 7.4, 10 mM, PE 500 nM
Method: Excitation and emission spectra of PEs in phosphate buffer alone, with monomeric HEWL and with HEWL amyloids (8 h incubated) are shown in FIGS. 18A-H, and relevant photophysical properties are summarized in Table 1. FIGS. 18A-H illustrate excitation (A, B, C, D) and emission (right; E, F, G. H) spectra of PEs (A, E: PE1+; B, F: PE1−; C, G: PE2+; D, H: […]) alone (long dashed line) with HEWL monomers (short dashed line) and with HEWL amyloids (solid line); PE concentration: 500 nM, protein concentration: 5 μM monomer basis/0.25 mg/mL; emission and excitation wavelengths, respectively, were chosen as shown in Table 1 for each sample. A 10:1 molar ratio of protein to PE was used for these experiments. Absorbance spectra were taken, but background light scattering from insoluble amyloid aggregates made them difficult to interpret, so “fluorescence detected absorbance” in the form of excitation spectra was used instead. Normalized excitation and emission spectra, in which peak shifts and lineshape changes of spectra were somewhat easier to visualize, were used. […] PE1+ (FIG. 18E) had no change in wavelength or lineshape of emission spectrum, just a large increase in intensity when mixed with amyloids. The excitation spectra (FIGS. 18A, B, C, D) show a notable bathochromic shift for each PE in solution mixed with amyloid, of 23, 27, 35 and 29 nm for PE1+, PE2+, PE3+ and PE1−, respectively, observing only the low-energy band. The high-energy band, less relevant for imaging purposes, was also bathochromically shifted. […] PE1− had similar excitation spectrum (FIG. 18B) with monomer and amyloid, except for a large intensity difference.
(§1) For studies of fluorescence enhancement vs. protein incubation time, dyes were mixed with protein sample in phosphate buffer (10 mM, pH 7.4) at equal monomer concentration of 10 μM in the wells of a standard 96-well plate. Emission spectra were obtained using top read with a SpectraMax M2e plate-reading spectrophotometer (Molecular Devices, Sunnyvale, CA). Experiments were performed in duplicate and errors are reported as standard deviation. For analysis of bound PE excitation and emission spectra and protein-PE energy transfer, PEs (500 nM) were mixed with protein sample (5 μM, monomer basis) in phosphate buffer and the solution transferred to a quartz, fluorometry cuvette. Spectra were obtained on a PTI QuantaMaster 40 steady state spectrofluorometer (HORIBA Scientific, Edison, NJ).

HEWL amyloid = biological target: T1, HEWL amyloid (Gallus gallus, UniProt P00698); assay: Binding saturation assay of PEs to HEWL amyloid (Hill fit); parameters: species or system hen; conditions: for Hill coeffi.: PE binding to HEWL amyloid
T1 construct: Lyophilized HEWL was dissolved at 10 mg/mL in 10 mM pH 3 sodium citrate buffer with 0.1 M NaCl; purchased Sigma-Aldrich; host or cells: hen egg white; fibrillised in house (pH 3, 70 °C, stirred)
Method: Next, binding saturation assays were conducted to quantify the affinity of PE-amyloid binding; data and fitted curves were produced and the fitted parameters are summarized in the last two columns of Table 1. Since the linear fibril binding sites could fit many PEs, fits to binding curves were performed to the Hill equation to capture possible binding cooperativity:
[formula] where x is PE concentration (with protein concentration fixed), y is PE fluorescence intensity. […] Fits to the data for the three cationic PEs produced Fmax values close to the observed saturation value, and the other two parameters are reported as calculated. […] Furthermore, the cooperativity of PE binding increased from almost no cooperativity for PE1+, to some positive cooperativity for PE2+, to still more positive cooperativity for PE3+. The quantitative physical meaning of the Hill parameter is not quite clear except in special cases, but in a general way it is possible to conclude that for the cationic PEs, the shortest PE has non-cooperative binding to HEWL amyloid (Michaelis-Menten binding), and the two longer PEs have increasingly positively cooperative binding. […] The effect of PE1− non-specific binding to HEWL monomers precluded accurate determination of a binding constant for PE1−/amyloid interactions such that a quantitative comparison of binding between the cationic and anionic compounds could not be made.
For determination of binding constant of PEs to amyloid aggregates, PEs were mixed with HEWL amyloid in phosphate buffer at a final concentration of 100 nM-5 μM for PEs and 5 μM (monomer basis) for protein. The solutions were then transferred to a quartz fluorometry cuvette and emission measured at the pertinent wavelength. Experiments were performed in duplicate and errors reported as standard deviation. Hill function fits to PE binding curves were calculated in OriginPro 9.

[2] = biological target: T2, HEWL fibrils incubated for different lengths of time (Gallus gallus, UniProt P00698); assay: Fluorescence enhancement of dyes versus HEWL incubation time; assay type: binding, hen; conditions: dye 10 μM, HEWL 10 μM monomer basis
T2 construct: Lyophilized HEWL was dissolved at 10 mg/mL in 10 mM pH 3 sodium citrate buffer with 0.1 M NaCl; purchased Sigma-Aldrich; host or cells: hen egg white; fibrillised in house (pH 3, 70 °C, stirred)
Method: Hen egg white lysozyme (HEWL) was used to form fibrillary amyloid aggregates for use in this study. […] For these experiments. HEWL (Sigma-Aldrich) was incubated at 70′C and a concentration of 350 μM in pH 3 sodium citrate buffer (10 mM) with 100 mM NaCl.
A plot of normalized fluorescence enhancement for all four PEs and Thioflavin T with HEWL fibrils incubated for different lengths of time is shown in FIG. 15. PE1+ and PE2+ track amyloid formation in roughly the same way as ThT, showing a sigmoidal curve with onset of a logarithmic growth phase occurring at the same time, around 1 hour of incubation. The plateau phase, as monitored by fluorescence of any of those three PEs or ThT, appeared at 2 hours incubation.
as §1

HEWL amyloid fibrils = biological target: T3, HEWL amyloid fibrils (Gallus gallus, UniProt P00698); assay: Induced circular dichroism of PE-amyloid complexes; assay type: binding, hen; conditions: PEs 10 μM, HEWL 10 μM monomer basis
T3 construct: Lyophilized HEWL was dissolved at 10 mg/mL in 10 mM pH 3 sodium citrate buffer with 0.1 M NaCl; purchased Sigma-Aldrich; host or cells: hen egg white; fibrillised in house (pH 3, 70 °C, stirred)
Method: Circular dichroism measurements were performed to determine if the intrinsic chirality of the HEWL fibrils was transferred to the PE chromophore by a chiral backbone twist or an “excitonic” chiral supramolecular aggregate. CD spectroscopy (CPEs in PB with HEWL monomer and with HEWL amyloid; performed for (a): PE1+; (b): PE1−; (c): PE2+; (d): PE3+; PEs 10 μM, HEWL 10 μM monomer basis/0.5 mg/mL) indicated induced circular dichroism of PEs when bound to HEWL amyloids. As expected, no PE had optical activity by itself in phosphate buffer solution and none of the PEs had any CD with HEWL monomer, including PE1−. […] PE2+ and PE3+ gave rise to similar CD spectra, with more intense bands in the spectrum for PE3+.
PEs and protein samples were diluted in phosphate buffer, gently vortexed, and read in a 1 mm pathlength quartz CD cuvette using an Aviv 410 CD spectrometer (Aviv Biomedical, Lakewood, NJ), 15 s averaging time. A blank spectrum (PB only) was subtracted from each sample to remove background activity. Error bars are standard deviation over multiple reads of a single sample as reported by the instrument.

T1 sequence (P00698 19-147): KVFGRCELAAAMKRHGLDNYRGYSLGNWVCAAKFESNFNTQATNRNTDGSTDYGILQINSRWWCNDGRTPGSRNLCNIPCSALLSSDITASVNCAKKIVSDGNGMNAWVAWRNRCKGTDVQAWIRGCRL
T2 sequence (P00698 19-147): as above
T3 sequence (P00698 19-147): as above

Row | Kd (HEWL amyloid; HEWL amyloid, Hill fit, read-out: calculated dissociation constant) [nM] | Compound | λem (H2O) [1] [nm] | φfl (H2O) [1] | φfl (MeOH) [1] | λem (PB) [1] [nm] | λex (PB), high-energy band [1] [nm] | λex (PB), low-energy band [1] [nm] | Kd (HEWL amyloid) [nM] | Hill coeffi. (HEWL amyloid) | HEWL incubation time at which the plateau phase of fluorescence enhancement appears [2] | induced circular dichroism with HEWL amyloid (HEWL amyloid fibrils)
1 |  | CCOC(=O)c1ccc(C#Cc2cc(OCC[N+](C)(C)C)c(C#Cc3ccc(C#Cc4cc(OCC[N+](C)(C)C)c(C#Cc5ccc(C(=O)OCC)cc5)cc4OCC[N+](C)(C)C)cc3)cc2OCC[N+](C)(C)C)cc1 [PE2+] | 448 | 0.039 | 0.71 | 460 | 330 | 399 | 1150 | 1.15 | 2 h | strong induced CD with a negative Cotton effect
2 | 858 | CCOC(=O)c1ccc(C#Cc2cc(OCC[N+](C)(C)C)c(C#Cc3ccc(C#Cc4cc(OCC[N+](C)(C)C)c(C#Cc5ccc(C#Cc6cc(OCC[N+](C)(C)C)c(C#Cc7ccc(C(=O)OCC)cc7)cc6OCC[N+](C)(C)C)cc5)cc4OCC[N+](C)(C)C)cc3)cc2OCC[N+](C)(C)C)cc1 [PE3+] | 440 | 0.069 | 0.70 | 464 | 340 | 399 |  | 1.89 | up to 3.5 hours | strong induced CD with a negative Cotton effect
